Data from the Kinase Knowledgebase extract (Sharma et al. 2016).

Biological target: PIK3CA (human) (UniProt P42336)
Experiment: Assessment of PIK3CA Kinase Activity

Chain of PIK3CA (human) (P42336 whole entry, looked up): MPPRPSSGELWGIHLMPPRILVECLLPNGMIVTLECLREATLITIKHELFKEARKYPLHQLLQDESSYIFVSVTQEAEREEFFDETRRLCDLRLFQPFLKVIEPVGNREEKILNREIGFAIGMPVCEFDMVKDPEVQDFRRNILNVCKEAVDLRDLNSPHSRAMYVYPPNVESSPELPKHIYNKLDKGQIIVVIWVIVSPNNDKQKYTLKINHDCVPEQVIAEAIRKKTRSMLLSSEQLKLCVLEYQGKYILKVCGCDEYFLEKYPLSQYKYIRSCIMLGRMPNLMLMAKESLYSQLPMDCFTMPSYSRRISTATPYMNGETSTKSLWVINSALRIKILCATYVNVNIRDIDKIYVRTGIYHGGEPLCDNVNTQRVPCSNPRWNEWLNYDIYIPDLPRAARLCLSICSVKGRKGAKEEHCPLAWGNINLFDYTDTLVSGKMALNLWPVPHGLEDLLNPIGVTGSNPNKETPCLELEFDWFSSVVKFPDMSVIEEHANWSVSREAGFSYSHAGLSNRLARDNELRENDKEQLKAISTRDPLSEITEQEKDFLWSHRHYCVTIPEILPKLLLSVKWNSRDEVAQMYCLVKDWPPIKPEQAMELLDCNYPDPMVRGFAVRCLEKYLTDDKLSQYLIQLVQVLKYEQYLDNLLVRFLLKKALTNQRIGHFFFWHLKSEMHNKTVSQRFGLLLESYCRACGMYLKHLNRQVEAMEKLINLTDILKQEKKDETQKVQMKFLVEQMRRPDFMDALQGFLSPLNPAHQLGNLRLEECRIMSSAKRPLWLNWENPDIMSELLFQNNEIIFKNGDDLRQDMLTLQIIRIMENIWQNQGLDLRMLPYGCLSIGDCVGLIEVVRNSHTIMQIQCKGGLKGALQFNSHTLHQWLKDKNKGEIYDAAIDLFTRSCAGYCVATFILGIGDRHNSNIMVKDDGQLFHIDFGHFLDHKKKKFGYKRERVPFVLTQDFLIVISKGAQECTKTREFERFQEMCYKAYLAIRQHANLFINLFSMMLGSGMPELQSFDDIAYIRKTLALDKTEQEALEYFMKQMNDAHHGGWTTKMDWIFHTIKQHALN

IC50	SMILES
50 to 1000 nM	CS(=O)(=O)NCC1CCN(c2nn3c(-c4cnc(N)c(C(F)(F)F)c4)cnc3s2)CC1
50 to 1000 nM	c1cc(-c2cnc3sc(N4CCOCC4)nn23)c2cn[nH]c2c1
50 to 1000 nM	CC(C)(C)OC(=O)N1CCC(CNc2nn3c(-c4cnc(N)c(C(F)(F)F)c4)cnc3s2)CC1
23000 nM	CN1CCN(c2ncc(-c3cnc4sc(NC5CCN(S(C)(=O)=O)CC5)nn34)cc2C(F)(F)F)CC1
50 to 1000 nM	COc1cncc(-c2cnc3sc(NCCCNS(C)(=O)=O)nn23)c1
230 nM	CC(C)(C)OC(=O)NC1CCCN(c2nn3c(-c4cnc(N)c(C(F)(F)F)c4)cnc3s2)C1 (stereo not drawn)
50 to 1000 nM	Nc1ncc(-c2cnc3sc(N4CCCC5(CCNCC5)C4)nn23)cc1C(F)(F)F
262 nM	CN1CCN(C(=O)NCCNc2nn3c(-c4cnc(N)c(C(F)(F)F)c4)cnc3s2)CC1
50 to 1000 nM	COC1CCN(c2nn3c(-c4cnc(N)c(C(F)(F)F)c4)cnc3s2)CC1
1 to 50 nM	CCNC(=O)N[C@H]1CC[C@H](Nc2nn3c(-c4cnc(N)c(C(F)(F)F)c4)c(Cl)nc3s2)CC1
50 to 1000 nM	NCCCNc1nn2c(-c3cnc(N)c(C(F)(F)F)c3)cnc2s1
1300 nM	Nc1ncc(-c2cnc3sc(N4CCNCC4)nn23)cc1C(F)(F)F
50 to 1000 nM	Nc1ncc(-c2c(Cl)nc3sc(N[C@H]4CC[C@@H](N)CC4)nn23)cc1C(F)(F)F
102 nM	CS(=O)(=O)NCC1CCCN(c2nn3c(-c4cnc(N)c(C(F)(F)F)c4)cnc3s2)C1 (stereo not drawn)
50 to 1000 nM	CS(=O)(=O)N1CCC2(CC1)CN(c1nn3c(-c4cnc(N)c(C(F)(F)F)c4)cnc3s1)C2
119 nM	CC(C)(C)OC(=O)N1C[C@@H]2CN(c3nn4c(-c5cnc(N)c(C(F)(F)F)c5)cnc4s3)C[C@@H]2C1
5 nM	CCNC(=O)N[C@H]1CC[C@H](Nc2nn3c(-c4cnc(N)c(C(F)(F)F)c4)cnc3s2)CC1
1 to 50 nM	NCC(=O)O[C@H]1CC[C@H](Nc2nn3c(-c4cnc(N)c(C(F)(F)F)c4)cnc3s2)CC1
